What is called pIC50 is the negative decadic logarithm of the IC50, by convention in mol/L. What is called half-life is the time needed for the level to fall by half in the phase considered. Low values mean rapid decline, high ones slow decline. What is called Tmax is the time from dosing to the highest level. The AUC is concentration integrated over time. As a reminder, the Cmax is the highest concentration seen after dosing. One may read the AUC(0-inf) as the area under the concentration-time curve extrapolated to infinity. Lower therefore signals less exposure. One may read the bioavailability as dose-corrected exposure relative to a reference, in per cent. Read a high bioavailability as good availability. One may read the AUC(0-t) as exposure summed from dosing to a finite time, without extrapolation to infinity. One may read the MRT as the average time that molecules of a dose stay in the body. As a reminder, the clearance is the rate of elimination divided by the concentration. A higher clearance goes with a high capacity for elimination.

Each structure is given as a SMILES string. pIC50: −log10 of the molar value.

Data set [1] has as its target Transient receptor potential cation channel subfamily M member 2 (Homo sapiens, UniProt O94759). The data set is described as follows: Inhibition of TRPM2 channel (unknown origin) in doxycycline-inducible human HEK-293T cells assessed as inhibition of ADPR activated current by measuring inhibition rate at +80 mV to -80 mV at 1 uM by whole-cell patch clamp electrophysiology relative to control. Type of data set: cell-based.

Data set [2] is described as follows: Half life in mouse at 1 mg/kg, iv administered single dose. As to conditions: in vivo. Type of data set: ADME, organism-based.
Data set [3] in a line: Tmax in mouse at 20 mg/kg, IG administered single dose. Type of data set: ADME, organism-based. As to conditions: in vivo, po.
The nature of data set [4]: AUC (0 to infinitive) in mouse at 20 mg/kg, IG administered single dose. As to conditions: in vivo, po. Type of data set: ADME, organism-based.
The nature of data set [5]: Cmax in mouse at 20 mg/kg, IG administered single dose. Type of data set: ADME, organism-based. Conditions: in vivo, po.
Data set [6] can be described thus: AUC (0 to infinitive) in mouse at 1 mg/kg, iv administered single dose. Type of data set: ADME, organism-based. As to conditions: in vivo.
A short description of data set [7]: Cmax in mouse at 1 mg/kg, iv administered single dose. Type of data set: ADME, organism-based. Conditions: in vivo.
The nature of data set [8]: Oral bioavailability in mouse at 20 mg/kg, IG administered single dose. In kind it is ADME, organism-based. Conditions: in vivo.
Data set [9] in a line: AUC (0 to t) in mouse at 20 mg/kg, IG administered single dose. Type of data set: ADME, organism-based. As to conditions: in vivo, po.
The nature of data set [10]: Half life in mouse at 20 mg/kg, IG administered single dose. Type of data set: ADME, organism-based. As to conditions: in vivo, po.
Data set [11] is described as follows: Cmax in mouse at 100 mg/kg, IG administered single dose. In kind it is ADME, organism-based. Conditions: in vivo, po.
The nature of data set [12]: AUC (0 to infinity) in mouse at 100 mg/kg, IG administered single dose. In kind it is ADME, organism-based. Conditions: in vivo, po.
A short description of data set [13]: Tmax in mouse at 100 mg/kg, IG administered single dose. In kind it is ADME, organism-based. As to conditions: in vivo, po.
Data set [14] relates to Mus musculus. The data set can be described thus: Neuroprotective effect against transient middle cerebral artery occlusion (tMCAO) mouse model assessed as infarct volume in TTC-stained brain slices at 1 mg/kg, iv administered 3 hrs after reperfusion (reference value: 59 +/- 2.4%). Type of data set: functional.
Data set [15] in a line: MRT in mouse at 100 mg/kg, IG administered single dose. In kind it is ADME, organism-based. As to conditions: in vivo, po.
The subject of data set [16] is Mus musculus. The data set is described as follows: Neuroprotective effect against transient middle cerebral artery occlusion (tMCAO) mouse model assessed as infarct volume in TTC-stained brain slices at 3 mg/kg, iv administered 24 hrs after reperfusion (reference value: 4.3 +/- 0.3%). In kind it is functional.
Data set [17] can be described thus: Oral bioavailability in mouse at 100 mg/kg, IG administered single dose. In kind it is ADME, organism-based. Conditions: in vivo.
Data set [18] concerns Mus musculus. The data set can be described thus: Neuroprotective effect against transient middle cerebral artery occlusion (tMCAO) mouse model assessed as infarct volume in TTC-stained brain slices at 0.3 mg/kg, iv administered 3 hrs after reperfusion (reference value: 59 +/- 2.4%). In kind it is functional.
The nature of data set [19]: Half life in mouse at 100 mg/kg, IG administered single dose. Conditions: in vivo, po. In kind it is ADME, organism-based.
The subject of data set [20] is Mus musculus. The data set is described as follows: Neuroprotective effect against transient middle cerebral artery occlusion (tMCAO) mouse model assessed as infarct volume in TTC-stained brain slices at 3 mg/kg, iv administered 3 hrs after reperfusion (reference value: 59 +/- 2.4%). Type of data set: functional.
A short description of data set [21]: Clearance in mouse at 1 mg/kg, iv administered single dose. Type of data set: ADME, organism-based. Conditions: in vivo.
Data set [22] deals with Mus musculus. The data set is described as follows: Neuroprotective effect against transient middle cerebral artery occlusion (tMCAO) (60 mins ischemia/24 hrs reperfusion) mouse model assessed as infarct volume in TTC-stained brain slices at 3 mg/kg, iv once daily for 7 days (reference value: 39.6 +/- 1.3%). Conditions: 1 h. Type of data set: functional.
Data set [23] is described as follows: MRT in mouse at 20 mg/kg, IG administered single dose. In kind it is ADME, organism-based. Conditions: in vivo, po.
A short description of data set [24]: AUC (0 to t) in mouse at 100 mg/kg, IG administered single dose. In kind it is ADME, organism-based. Conditions: in vivo, po.
A short description of data set [25]: Tmax in mouse at 1 mg/kg, iv administered single dose. In kind it is ADME, organism-based. Conditions: in vivo.
Data set [26] is described as follows: AUC (0 to t) in mouse at 1 mg/kg, iv administered single dose. Conditions: in vivo. In kind it is ADME, organism-based.
Data set [27] is described as follows: MRT in mouse at 1 mg/kg, iv administered single dose. In kind it is ADME, organism-based. Conditions: in vivo.
For data set [28], the system named is Mus musculus. The data set can be described thus: Neuroprotective effect against transient middle cerebral artery occlusion (tMCAO) mouse model assessed as infarct volume in TTC-stained brain slices at 1 mg/kg, iv administered 24 hrs after reperfusion (reference value: 4.3 +/- 0.3%). In kind it is functional.

Sequence of Transient receptor potential cation channel subfamily M member 2 (O94759 whole entry): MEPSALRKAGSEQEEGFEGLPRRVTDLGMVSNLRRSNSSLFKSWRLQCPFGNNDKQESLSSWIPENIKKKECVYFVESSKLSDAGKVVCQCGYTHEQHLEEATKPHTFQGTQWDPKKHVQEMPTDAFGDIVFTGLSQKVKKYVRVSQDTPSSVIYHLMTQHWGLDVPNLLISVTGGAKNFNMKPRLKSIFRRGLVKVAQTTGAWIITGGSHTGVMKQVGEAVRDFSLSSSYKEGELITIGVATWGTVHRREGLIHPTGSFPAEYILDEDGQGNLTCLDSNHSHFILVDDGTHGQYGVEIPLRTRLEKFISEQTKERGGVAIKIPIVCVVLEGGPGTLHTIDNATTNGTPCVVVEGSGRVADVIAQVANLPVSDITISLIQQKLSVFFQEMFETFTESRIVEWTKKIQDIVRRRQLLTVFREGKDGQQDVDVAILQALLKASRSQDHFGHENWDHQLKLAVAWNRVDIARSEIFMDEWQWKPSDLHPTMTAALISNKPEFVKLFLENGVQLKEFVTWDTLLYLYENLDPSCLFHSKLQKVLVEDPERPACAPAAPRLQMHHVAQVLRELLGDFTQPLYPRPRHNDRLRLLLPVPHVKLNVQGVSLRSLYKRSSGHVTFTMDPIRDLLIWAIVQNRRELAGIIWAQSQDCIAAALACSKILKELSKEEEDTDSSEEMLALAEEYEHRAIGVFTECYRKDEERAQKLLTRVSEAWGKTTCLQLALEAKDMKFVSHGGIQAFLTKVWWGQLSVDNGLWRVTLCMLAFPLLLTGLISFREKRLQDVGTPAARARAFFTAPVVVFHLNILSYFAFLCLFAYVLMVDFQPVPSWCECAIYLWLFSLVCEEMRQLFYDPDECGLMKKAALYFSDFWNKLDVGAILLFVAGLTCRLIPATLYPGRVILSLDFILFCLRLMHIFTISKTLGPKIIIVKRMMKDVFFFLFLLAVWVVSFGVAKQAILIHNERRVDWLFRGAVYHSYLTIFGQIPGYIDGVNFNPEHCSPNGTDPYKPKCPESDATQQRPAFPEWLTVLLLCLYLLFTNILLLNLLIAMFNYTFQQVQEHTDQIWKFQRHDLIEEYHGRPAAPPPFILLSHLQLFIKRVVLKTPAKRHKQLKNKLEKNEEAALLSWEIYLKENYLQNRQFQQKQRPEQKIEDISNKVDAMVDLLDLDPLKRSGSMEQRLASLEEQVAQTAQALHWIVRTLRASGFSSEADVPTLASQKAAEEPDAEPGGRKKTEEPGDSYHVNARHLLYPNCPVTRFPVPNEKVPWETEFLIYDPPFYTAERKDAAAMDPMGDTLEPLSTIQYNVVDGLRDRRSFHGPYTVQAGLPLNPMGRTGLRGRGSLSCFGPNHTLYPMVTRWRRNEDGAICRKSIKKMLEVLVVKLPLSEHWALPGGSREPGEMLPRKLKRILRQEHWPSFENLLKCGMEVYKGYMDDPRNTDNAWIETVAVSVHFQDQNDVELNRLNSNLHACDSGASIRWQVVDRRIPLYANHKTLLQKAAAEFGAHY

Take `O=C(c1ccccc1)c1cc(C(=O)N2CCOCC2)cc2cccn12`: the negative logarithm of the IC50 (pIC50) in [1] was 5.54.
As to `CCN(CC)C(=O)c1cc(C(=O)c2ccccc2)n2cccc2c1`, the half-life in data set [2] is 0.86 h; in data set [10], 2.62 h; in [19] it was 2.83 h. Moreover, the Tmax in data set [3] worked out at 0.83 h; in [13] it was 1.1 h; in [25] it was 5.4 min. Besides, the figures for the area under the curve (AUC) in data set [4] and in [12] were 2410 ng·h/mL and 11740 ng·h/mL, respectively. Also, the Cmax in [5] amounted to 330 ng/mL; in [7], 260 ng/mL; in data set [11], 1520 ng/mL. Further, the AUC(0-inf) in data set [6] is 220 ng·h/mL. In addition, the bioavailability in [8] came out at 50%; in data set [17] it was 48.2%. Further, the exposure AUC(0-t) in [9] was found to be 2200 ng·h/mL; in [24], 10600 ng·h/mL; in data set [26], 220 ng·h/mL. In addition, the Activity in data set [14] was 39.4%; in [16], 2.3%; in data set [18] it was 51.5%; in [20], 30.7%; in [22], 23.4%. Moreover, the mean residence time MRT in data set [15] was 3.16 h; in data set [23] it was 2.65 h; in data set [27], 1.24 h. In data set [1], the negative-log IC50 (pIC50) is 5.64. Further, in [21], the clearance was found to be 75.8 mL/min/kg.
In the case of `O=C(c1ccccc1)c1cc(C(=O)N2CCCC2)cc2cccn12`, the negative logarithm of the IC50 (pIC50) in data set [1] is 5.51.
The same measure, in the same setting: the result for `O=C(c1ccccc1)c1cc(C(=O)N2CCCCC2)cc2cccn12` reads 5.55.
Take `CC1=NN(c2ccccc2)C(=O)C1` [EDARAVONE]: the Activity in data set [16] is recorded as 3%; in data set [20], 40.6%; in data set [22], 38.9%; in [28], 2.8%.

The values above are taken from ChEMBL document CHEMBL6109145, “Indolizine Derivatives Inhibit TRPM2 and Protect against Ischemic Brain Injury with an Extended Treatment Window” (J Med Chem, 2025).
